{"source": "the kinase profiling compilation of Christmann-Franck et al. (2016)", "test_in_all_cases": "KINOMEscan competition binding", "conditions_in_all_cases": "compound 10.0 µM", "key": {"LRRK2 (human)": {"target": "LRRK2 (human) (UniProt Q5S007)"}, "TNK1 (human)": {"target": "TNK1 (human) (UniProt Q13470)"}, "CDK11B (human)": {"target": "CDK11B (human) (UniProt P21127)"}, "NEK5 (human)": {"target": "NEK5 (human) (UniProt Q6P3R8)", "sequence (Q6P3R8 whole entry, looked up)": "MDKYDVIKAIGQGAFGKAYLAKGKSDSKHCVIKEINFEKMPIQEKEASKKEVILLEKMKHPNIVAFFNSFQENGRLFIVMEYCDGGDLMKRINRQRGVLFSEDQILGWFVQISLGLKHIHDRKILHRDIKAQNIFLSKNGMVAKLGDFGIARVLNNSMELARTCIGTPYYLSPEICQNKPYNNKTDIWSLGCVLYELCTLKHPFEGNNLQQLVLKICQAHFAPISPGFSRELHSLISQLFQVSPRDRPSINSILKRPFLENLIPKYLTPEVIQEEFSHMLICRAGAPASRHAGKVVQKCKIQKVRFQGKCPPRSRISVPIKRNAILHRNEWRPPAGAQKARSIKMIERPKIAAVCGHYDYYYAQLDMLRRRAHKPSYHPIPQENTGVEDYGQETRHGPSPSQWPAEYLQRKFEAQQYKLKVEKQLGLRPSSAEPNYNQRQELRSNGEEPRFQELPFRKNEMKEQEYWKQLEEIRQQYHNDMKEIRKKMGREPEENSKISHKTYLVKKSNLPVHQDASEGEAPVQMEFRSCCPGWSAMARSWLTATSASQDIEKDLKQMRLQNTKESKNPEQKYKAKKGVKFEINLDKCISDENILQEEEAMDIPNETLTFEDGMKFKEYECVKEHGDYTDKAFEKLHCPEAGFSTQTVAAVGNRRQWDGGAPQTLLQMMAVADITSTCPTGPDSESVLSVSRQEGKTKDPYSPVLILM"}, "HIPK1 (human)": {"target": "HIPK1 (human) (UniProt Q86Z02)", "sequence (Q86Z02 whole entry, looked up)": "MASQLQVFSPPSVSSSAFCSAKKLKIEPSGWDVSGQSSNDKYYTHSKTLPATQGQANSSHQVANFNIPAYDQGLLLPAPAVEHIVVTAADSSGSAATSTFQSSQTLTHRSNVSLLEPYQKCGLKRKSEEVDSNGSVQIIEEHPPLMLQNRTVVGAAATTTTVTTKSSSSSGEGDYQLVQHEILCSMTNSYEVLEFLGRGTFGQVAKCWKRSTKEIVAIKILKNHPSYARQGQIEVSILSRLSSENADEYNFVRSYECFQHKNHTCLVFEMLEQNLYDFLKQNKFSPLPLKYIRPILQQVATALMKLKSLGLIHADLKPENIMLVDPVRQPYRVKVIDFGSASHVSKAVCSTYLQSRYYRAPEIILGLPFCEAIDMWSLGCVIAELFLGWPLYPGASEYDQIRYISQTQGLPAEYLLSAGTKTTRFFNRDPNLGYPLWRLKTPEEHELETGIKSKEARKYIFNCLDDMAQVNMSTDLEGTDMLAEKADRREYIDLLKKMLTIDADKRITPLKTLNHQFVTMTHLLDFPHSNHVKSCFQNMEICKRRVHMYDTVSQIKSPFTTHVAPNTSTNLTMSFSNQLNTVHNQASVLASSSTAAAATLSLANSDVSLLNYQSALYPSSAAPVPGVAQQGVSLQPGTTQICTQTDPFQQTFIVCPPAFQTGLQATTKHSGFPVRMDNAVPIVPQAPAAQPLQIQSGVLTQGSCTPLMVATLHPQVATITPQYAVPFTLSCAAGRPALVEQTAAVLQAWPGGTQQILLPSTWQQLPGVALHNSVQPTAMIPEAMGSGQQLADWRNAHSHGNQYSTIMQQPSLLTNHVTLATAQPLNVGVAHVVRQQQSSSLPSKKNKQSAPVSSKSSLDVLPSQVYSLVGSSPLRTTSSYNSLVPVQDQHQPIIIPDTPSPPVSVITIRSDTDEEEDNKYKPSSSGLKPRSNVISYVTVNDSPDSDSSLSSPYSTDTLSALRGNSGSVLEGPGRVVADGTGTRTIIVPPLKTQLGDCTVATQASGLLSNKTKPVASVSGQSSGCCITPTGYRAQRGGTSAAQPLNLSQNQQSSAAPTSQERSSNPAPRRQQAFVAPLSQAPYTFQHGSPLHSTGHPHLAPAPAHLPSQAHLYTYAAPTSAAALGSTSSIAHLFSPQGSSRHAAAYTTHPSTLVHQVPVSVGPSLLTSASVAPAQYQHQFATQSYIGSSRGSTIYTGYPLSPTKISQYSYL"}, "TAOK1 (human)": {"target": "TAOK1 (human) (UniProt Q7L7X3)"}, "PIP4K2B (human)": {"target": "PIP4K2B (human) (UniProt P78356)"}, "EPHB1 (human)": {"target": "EPHB1 (human) (UniProt P54762)"}, "IRAK1 (human)": {"target": "IRAK1 (human) (UniProt P51617)"}, "[1]": {"target": "JAK1 JH1 catalytic (human) (UniProt P23458)"}, "CDK14 (human)": {"target": "CDK14 (human) (UniProt O94921)"}, "STK10 (human)": {"target": "STK10 (human) (UniProt O94804)"}, "LYN (human)": {"target": "LYN (human) (UniProt P07948)"}, "TESK1 (human)": {"target": "TESK1 (human) (UniProt Q15569)"}, "PIP5K1A (human)": {"target": "PIP5K1A (human) (UniProt Q99755)"}, "PTK6 (human)": {"target": "PTK6 (human) (UniProt Q13882)"}, "DMPK (human)": {"target": "DMPK (human) (UniProt Q09013)"}, "[2]": {"system": "PIK3CA (human), P42336 [I800L]"}, "PRKACB (human)": {"target": "PRKACB (human) (UniProt P22694)"}, "PAK3 (human)": {"target": "PAK3 (human) (UniProt O75914)"}, "WEE1 (human)": {"target": "WEE1 (human) (UniProt P30291)"}, "SIK3 (human)": {"target": "SIK3 (human) (UniProt Q9Y2K2)", "sequence (Q9Y2K2 whole entry, looked up)": "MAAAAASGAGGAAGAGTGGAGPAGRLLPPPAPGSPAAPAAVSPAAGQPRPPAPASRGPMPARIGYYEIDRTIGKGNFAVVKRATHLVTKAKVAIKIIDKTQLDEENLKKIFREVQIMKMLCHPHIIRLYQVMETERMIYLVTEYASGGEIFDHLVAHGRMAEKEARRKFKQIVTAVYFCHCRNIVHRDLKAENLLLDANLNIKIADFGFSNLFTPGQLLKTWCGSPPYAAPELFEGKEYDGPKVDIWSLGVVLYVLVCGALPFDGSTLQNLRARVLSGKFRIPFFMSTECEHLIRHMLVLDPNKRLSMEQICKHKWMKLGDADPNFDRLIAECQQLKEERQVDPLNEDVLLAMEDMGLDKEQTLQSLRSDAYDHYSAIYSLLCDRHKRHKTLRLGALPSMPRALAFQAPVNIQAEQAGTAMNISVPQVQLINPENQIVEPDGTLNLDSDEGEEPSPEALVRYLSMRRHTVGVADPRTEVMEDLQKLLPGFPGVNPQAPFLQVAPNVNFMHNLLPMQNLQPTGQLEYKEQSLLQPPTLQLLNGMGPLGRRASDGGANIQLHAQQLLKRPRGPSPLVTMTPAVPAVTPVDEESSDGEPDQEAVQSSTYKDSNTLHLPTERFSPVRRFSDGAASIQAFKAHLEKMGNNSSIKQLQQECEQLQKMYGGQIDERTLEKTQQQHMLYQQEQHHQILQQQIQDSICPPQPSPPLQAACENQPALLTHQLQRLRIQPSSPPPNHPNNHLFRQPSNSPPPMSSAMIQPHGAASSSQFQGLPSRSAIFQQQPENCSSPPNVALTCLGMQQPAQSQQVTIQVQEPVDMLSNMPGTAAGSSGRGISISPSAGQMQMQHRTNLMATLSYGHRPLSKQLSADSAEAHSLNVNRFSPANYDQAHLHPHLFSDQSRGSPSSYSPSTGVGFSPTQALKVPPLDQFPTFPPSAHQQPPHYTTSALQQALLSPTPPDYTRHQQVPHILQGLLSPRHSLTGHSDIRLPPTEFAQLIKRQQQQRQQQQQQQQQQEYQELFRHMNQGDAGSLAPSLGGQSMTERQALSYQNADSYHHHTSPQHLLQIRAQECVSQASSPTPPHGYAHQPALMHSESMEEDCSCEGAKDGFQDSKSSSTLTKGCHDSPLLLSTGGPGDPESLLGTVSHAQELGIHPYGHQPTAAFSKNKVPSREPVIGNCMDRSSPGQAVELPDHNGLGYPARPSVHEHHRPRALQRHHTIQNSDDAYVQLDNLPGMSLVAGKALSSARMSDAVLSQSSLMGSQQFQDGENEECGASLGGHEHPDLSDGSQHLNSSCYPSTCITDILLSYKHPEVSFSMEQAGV"}, "CDK16 (human)": {"target": "CDK16 (human) (UniProt Q00536)"}, "GRK7 (human)": {"target": "GRK7 (human) (UniProt Q8WTQ7)", "sequence (Q8WTQ7 whole entry, looked up)": "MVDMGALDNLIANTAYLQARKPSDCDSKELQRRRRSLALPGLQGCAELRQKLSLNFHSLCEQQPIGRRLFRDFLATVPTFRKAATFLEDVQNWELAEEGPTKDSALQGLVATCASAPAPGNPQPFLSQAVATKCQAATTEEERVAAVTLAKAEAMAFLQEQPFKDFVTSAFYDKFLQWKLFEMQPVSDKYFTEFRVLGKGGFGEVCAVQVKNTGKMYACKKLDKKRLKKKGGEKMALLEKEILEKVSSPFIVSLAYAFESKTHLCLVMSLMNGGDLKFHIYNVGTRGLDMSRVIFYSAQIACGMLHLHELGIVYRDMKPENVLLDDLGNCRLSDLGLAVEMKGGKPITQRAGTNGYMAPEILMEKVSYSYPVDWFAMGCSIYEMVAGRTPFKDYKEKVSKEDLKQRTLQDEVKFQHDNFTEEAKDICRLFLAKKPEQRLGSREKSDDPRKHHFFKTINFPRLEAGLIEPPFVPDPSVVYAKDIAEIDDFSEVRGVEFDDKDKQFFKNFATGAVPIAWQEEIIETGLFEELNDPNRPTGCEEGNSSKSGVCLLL"}, "STK33 (human)": {"target": "STK33 (human) (UniProt Q9BYT3)", "sequence (Q9BYT3 whole entry, looked up)": "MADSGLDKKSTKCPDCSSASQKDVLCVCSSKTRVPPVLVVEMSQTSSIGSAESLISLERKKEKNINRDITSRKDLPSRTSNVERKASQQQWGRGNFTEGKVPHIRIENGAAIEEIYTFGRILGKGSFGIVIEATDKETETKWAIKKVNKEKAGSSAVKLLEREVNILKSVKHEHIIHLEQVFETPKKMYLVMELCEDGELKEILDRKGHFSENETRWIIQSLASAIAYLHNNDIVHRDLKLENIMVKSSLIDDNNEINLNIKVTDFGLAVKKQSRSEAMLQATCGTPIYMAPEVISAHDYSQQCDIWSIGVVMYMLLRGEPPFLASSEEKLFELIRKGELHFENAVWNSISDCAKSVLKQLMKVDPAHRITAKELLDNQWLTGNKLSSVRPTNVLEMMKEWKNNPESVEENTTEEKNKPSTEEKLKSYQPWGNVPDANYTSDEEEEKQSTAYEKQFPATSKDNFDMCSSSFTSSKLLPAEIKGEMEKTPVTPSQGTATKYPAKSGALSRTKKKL"}, "[3]": {"system": "KIT (human), P10721 [L576P]"}, "CaMK1 (human)": {"target": "CaMK1 (human) (UniProt Q14012)"}, "MTOR (human)": {"target": "MTOR (human) (UniProt P42345)"}, "CLK1 (human)": {"target": "CLK1 (human) (UniProt P49759)"}, "PIM3 (human)": {"target": "PIM3 (human) (UniProt Q86V86)"}, "[4]": {"system": "FGFR3 (human), P22607 [G697C]"}, "DSTYK (human)": {"target": "DSTYK (human) (UniProt Q6XUX3)"}, "MAP3K6 (human)": {"target": "MAP3K6 (human) (UniProt O95382)"}, "PRKD1 (human)": {"target": "PRKD1 (human) (UniProt Q15139)"}, "MELK (human)": {"target": "MELK (human) (UniProt Q14680)"}, "WEE2 (human)": {"target": "WEE2 (human) (UniProt P0C1S8)", "sequence (P0C1S8 whole entry, looked up)": "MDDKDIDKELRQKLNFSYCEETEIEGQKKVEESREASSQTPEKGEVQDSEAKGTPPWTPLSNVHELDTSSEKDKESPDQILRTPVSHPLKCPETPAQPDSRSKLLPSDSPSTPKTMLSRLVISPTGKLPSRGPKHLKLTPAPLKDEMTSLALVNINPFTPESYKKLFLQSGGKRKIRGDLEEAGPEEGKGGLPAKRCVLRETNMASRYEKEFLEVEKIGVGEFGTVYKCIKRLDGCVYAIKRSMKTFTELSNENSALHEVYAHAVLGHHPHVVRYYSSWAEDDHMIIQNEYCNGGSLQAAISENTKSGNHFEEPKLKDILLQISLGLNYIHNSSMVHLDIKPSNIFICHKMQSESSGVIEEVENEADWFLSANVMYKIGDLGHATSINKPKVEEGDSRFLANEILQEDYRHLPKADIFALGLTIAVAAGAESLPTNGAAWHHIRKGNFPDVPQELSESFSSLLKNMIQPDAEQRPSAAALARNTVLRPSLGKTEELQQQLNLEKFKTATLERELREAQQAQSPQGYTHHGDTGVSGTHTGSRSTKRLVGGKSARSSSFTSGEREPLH"}, "MYO3A (human)": {"target": "MYO3A (human) (UniProt Q8NEV4)"}, "ROCK1 (human)": {"target": "ROCK1 (human) (UniProt Q13464)"}, "PRKCI (human)": {"target": "PRKCI (human) (UniProt P41743)"}, "ACVR1B (human)": {"target": "ACVR1B (human) (UniProt P36896)"}, "ULK1 (human)": {"target": "ULK1 (human) (UniProt O75385)"}}}
{"smiles": "COC(=O)Nc1ccc(-c2nc(N3CCOCC3)c3cnn(C4CCN(C(=O)OC)CC4)c3n2)cc1", "values": [{"measurement": "kinase still bound, per cent of control", "setting": "LRRK2 (human)", "result": 91, "unit": "%"}, {"measurement": "kinase still bound, per cent of control", "setting": "TNK1 (human)", "result": 100, "unit": "%"}, {"measurement": "per cent of control", "setting": "CDK11B (human)", "result": 100, "unit": "%"}, {"measurement": "kinase still bound, per cent of control", "setting": "NEK5 (human)", "result": 100, "unit": "%"}, {"measurement": "kinase still bound, per cent of control", "setting": "HIPK1 (human)", "result": 57, "unit": "%"}, {"measurement": "kinase still bound, per cent of control", "setting": "TAOK1 (human)", "result": 83, "unit": "%"}, {"measurement": "kinase still bound, per cent of control", "setting": "PIP4K2B (human)", "result": 100, "unit": "%"}, {"measurement": "kinase still bound, per cent of control", "setting": "EPHB1 (human)", "result": 100, "unit": "%"}, {"measurement": "kinase still bound, per cent of control", "setting": "IRAK1 (human)", "result": 100, "unit": "%"}, {"measurement": "kinase still bound, per cent of control", "setting": "[1]", "result": 100, "unit": "%"}, {"measurement": "per cent of control", "setting": "CDK14 (human)", "result": 100, "unit": "%"}, {"measurement": "kinase still bound, per cent of control", "setting": "STK10 (human)", "result": 100, "unit": "%"}, {"measurement": "kinase still bound, per cent of control", "setting": "LYN (human)", "result": 92, "unit": "%"}, {"measurement": "kinase still bound, per cent of control", "setting": "TESK1 (human)", "result": 91, "unit": "%"}, {"measurement": "kinase still bound, per cent of control", "setting": "PIP5K1A (human)", "result": 98, "unit": "%"}, {"measurement": "kinase still bound, per cent of control", "setting": "PTK6 (human)", "result": 88, "unit": "%"}, {"measurement": "kinase still bound, per cent of control", "setting": "DMPK (human)", "result": 100, "unit": "%"}, {"measurement": "kinase still bound, per cent of control", "setting": "[2]", "result": 0.4, "unit": "%"}, {"measurement": "per cent of control", "setting": "PRKACB (human)", "result": 97, "unit": "%"}, {"measurement": "kinase still bound, per cent of control", "setting": "PAK3 (human)", "result": 83, "unit": "%"}, {"measurement": "kinase still bound, per cent of control", "setting": "WEE1 (human)", "result": 100, "unit": "%"}, {"measurement": "kinase still bound, per cent of control", "setting": "SIK3 (human)", "result": 83, "unit": "%"}, {"measurement": "per cent of control", "setting": "CDK16 (human)", "result": 100, "unit": "%"}, {"measurement": "kinase still bound, per cent of control", "setting": "GRK7 (human)", "result": 100, "unit": "%"}, {"measurement": "kinase still bound, per cent of control", "setting": "STK33 (human)", "result": 84, "unit": "%"}, {"measurement": "kinase still bound, per cent of control", "setting": "[3]", "result": 100, "unit": "%"}, {"measurement": "kinase still bound, per cent of control", "setting": "CaMK1 (human)", "result": 96, "unit": "%"}, {"measurement": "kinase still bound, per cent of control", "setting": "MTOR (human)", "result": 0, "unit": "%"}, {"measurement": "kinase still bound, per cent of control", "setting": "CLK1 (human)", "result": 100, "unit": "%"}, {"measurement": "kinase still bound, per cent of control", "setting": "PIM3 (human)", "result": 100, "unit": "%"}, {"measurement": "kinase still bound, per cent of control", "setting": "[4]", "result": 100, "unit": "%"}, {"measurement": "kinase still bound, per cent of control", "setting": "DSTYK (human)", "result": 100, "unit": "%"}, {"measurement": "kinase still bound, per cent of control", "setting": "MAP3K6 (human)", "result": 95, "unit": "%"}, {"measurement": "kinase still bound, per cent of control", "setting": "PRKD1 (human)", "result": 95, "unit": "%"}, {"measurement": "kinase still bound, per cent of control", "setting": "MELK (human)", "result": 86, "unit": "%"}, {"measurement": "kinase still bound, per cent of control", "setting": "WEE2 (human)", "result": 95, "unit": "%"}, {"measurement": "kinase still bound, per cent of control", "setting": "MYO3A (human)", "result": 100, "unit": "%"}, {"measurement": "kinase still bound, per cent of control", "setting": "ROCK1 (human)", "result": 82, "unit": "%"}, {"measurement": "kinase still bound, per cent of control", "setting": "PRKCI (human)", "result": 100, "unit": "%"}, {"measurement": "kinase still bound, per cent of control", "setting": "ACVR1B (human)", "result": 100, "unit": "%"}, {"measurement": "kinase still bound, per cent of control", "setting": "ULK1 (human)", "result": 84, "unit": "%"}]}
